Strand notation (5' to 3'): a small letter for the sugar, then the base; units joined by * are phosphorothioate-linked, units joined directly phosphodiester-linked; [ ] holds rarer units or linkages, { } end groups; capitals alone tell only the bases. k = constrained ethyl (cEt); [5mC] = 5-methylcytosine; d = 2'-deoxy (DNA)
Test system: Yap1 mRNA
Experiment: Antisense inhibition of human Yap1 in A-431 cells by cEt gapmers, single dose (Example 3, RTS36584)
Format: cell-based
Details: Table 8; A-431 cells, 5,000 cells per well, free uptake, 2,000 nM, approximately 48 hours; RTS36584; normalized to RIBOGREEN; Yap1 mRNA relative to untreated control cells
Outline: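 Free uptake, 2,000 nM, ~48 h, A-431 cells. Gapmers: 16-mer 3-10-3 cEt wings, PS backbone, 5-MeC. Readout qRT-PCR, RiboGreen-normalized, % UTC.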

Substance | YAP1 (% UTC)
958364 (antisense k[5mC]*kA*kT*dG*dT*dT*dG*dT*dT*dG*dT*d[5mC]*dT*kG*kA*kT) [Compound 958364] | 19
958411 (antisense k[5mC]*kT*kT*dT*dA*d[5mC]*d[5mC]*dA*dA*dA*dA*d[5mC]*dG*kA*kG*kG) [Compound 958411] | 90
958363 (antisense kT*kG*kA*dG*d[5mC]*dT*d[5mC]*dG*dA*dA*d[5mC]*dA*dT*kG*k[5mC]*kT) [Compound 958363] | 70

Same assay, conditions: Table 9; A-431 cells, 5,000 cells per well, free uptake, 2,000 nM, approximately 48 hours; RTS36584; normalized to RIBOGREEN; Yap1 mRNA relative to untreated control cells

Substance | YAP1 (% UTC)
958491 (kA*k[5mC]*kT*dA*dA*dA*dT*dG*d[5mC]*dT*dG*dT*dG*kA*k[5mC]*kA; antisense) [Compound 958491] | 4
958716 (antisense kA*kT*kG*dG*dA*d[5mC]*dT*dG*dT*dA*dT*dG*d[5mC]*kA*kG*k[5mC]) [Compound 958716] | 84
958566 (kA*k[5mC]*k[5mC]*dT*dA*dT*dG*dA*dA*d[5mC]*dT*dA*dT*kT*kA*kT; antisense) [Compound 958566] | 18

Same assay, conditions: Table 10; A-431 cells, 5,000 cells per well, free uptake, 2,000 nM oligonucleotide, approx. 48 hours; primer probe set RTS36584; Yap1 mRNA normalized to RIBOGREEN, percent of untreated control

Substance | YAP1 (% UTC)
958757 (antisense kG*kT*kG*dA*dT*d[5mC]*dT*dG*d[5mC]*dA*d[5mC]*dA*dT*kT*kG*kT) [Compound 958757] | 5
958777 (antisense kG*kT*kA*dA*d[5mC]*dT*dG*dT*dT*dT*d[5mC]*dT*dA*kG*kG*kT) [Compound 958777] | 10
958767 (antisense kA*k[5mC]*kG*dA*dA*dT*dA*dA*dG*dG*d[5mC]*dA*dT*kT*kA*kG) [Compound 958767] | 6
958597 (k[5mC]*k[5mC]*k[5mC]*dA*dA*dT*dA*d[5mC]*dA*dA*d[5mC]*d[5mC]*dA*kA*kG*kA; antisense) [Compound 958597] | 6
958507 (kG*kA*kG*d[5mC]*dA*dG*dA*dT*dA*dA*dT*d[5mC]*dG*kA*kG*kA; antisense) [Compound 958507] | 6

Same assay, conditions: Table 11; A-431 cells, 5,000 cells per well, free uptake, 2,000 nM oligonucleotide, approx. 48 hours; primer probe set RTS36584; Yap1 mRNA normalized to RIBOGREEN, percent of untreated control

Substance | YAP1 (% UTC)
958453 (antisense kG*k[5mC]*k[5mC]*dT*d[5mC]*dA*dT*dG*dG*dG*d[5mC]*dA*d[5mC]*kG*kG*kT) [Compound 958453] | 70
958708 (antisense kA*kT*kG*dT*d[5mC]*dA*dG*dA*dT*dG*dT*d[5mC]*dA*kA*kT*kT) [Compound 958708] | 19
958693 (antisense kG*kT*kG*dG*dT*dG*dT*d[5mC]*dT*d[5mC]*dA*d[5mC]*dA*kG*kG*k[5mC]) [Compound 958693] | 99
958753 (antisense kT*kG*kT*dA*dT*dA*dT*dG*d[5mC]*d[5mC]*dG*dT*dT*k[5mC]*k[5mC]*k[5mC]) [Compound 958753] | 4
958758 (antisense k[5mC]*kT*kA*dT*dT*d[5mC]*dA*dG*dT*dG*dA*dT*d[5mC]*kT*kG*k[5mC]) [Compound 958758] | 2
958723 (antisense kA*kA*k[5mC]*d[5mC]*d[5mC]*dA*d[5mC]*dT*dA*dA*dA*dA*d[5mC]*k[5mC]*kG*kG) [Compound 958723] | 63

Same assay, conditions: Table 12; A-431 cells, 5,000 cells per well, free uptake, 2,000 nM modified oligonucleotide, approx. 48 hours; RTS36584; normalized to RIBOGREEN; Yap1 mRNA relative to untreated control cells

Substance | YAP1 (% UTC)
958569 (kA*kG*k[5mC]*d[5mC]*dT*dT*dA*dG*dA*dG*dT*d[5mC]*dA*kA*kT*kT; antisense) [Compound 958569] | 3
958519 (k[5mC]*k[5mC]*k[5mC]*d[5mC]*dT*dA*dG*dG*d[5mC]*dA*d[5mC]*dT*dA*kT*k[5mC]*k[5mC]; antisense) [Compound 958519] | 20
958724 (antisense kT*k[5mC]*kA*dG*dT*dT*dA*dT*d[5mC]*d[5mC]*dT*dA*dT*k[5mC]*k[5mC]*k[5mC]) [Compound 958724] | 2

Same assay, conditions: Table 13; A-431 cells, 5,000 cells per well, free uptake, 2,000 nM modified oligonucleotide, approx. 48 hours; RTS36584; normalized to RIBOGREEN; Yap1 mRNA relative to untreated control cells

Substance | YAP1 (% UTC)
958735 (antisense kA*kG*k[5mC]*dA*dA*dT*d[5mC]*dT*dT*dG*dT*dG*dG*kA*kT*k[5mC]) [Compound 958735] | 7
958625 (antisense kT*kG*k[5mC]*dT*dG*dG*dG*dA*dT*dT*dG*dA*dT*kA*kT*kT) [Compound 958625] | 6

Same assay, conditions: Table 26; Yap1 mRNA by 3-10-3 cEt gapmers targeting SEQ ID NO.: 1, and 2; percent of untreated control

Substance | YAP1 (% UTC)
1075276 (kG*kA*k[5mC]*d[5mC]*dA*dA*dT*dA*d[5mC]*dA*dA*dT*dG*kG*kG*kA; antisense) [compound 1075276] | 78
1075180 (kT*kA*kT*dT*dA*d[5mC]*dT*dA*d[5mC]*dA*dA*d[5mC]*d[5mC]*kA*kT*kA; antisense) [compound 1075180] | 56
1075116 (k[5mC]*kT*kT*dA*dA*d[5mC]*dA*dT*dT*dT*dA*dA*dT*kG*kG*k[5mC]; antisense) [compound 1075116] | 15
1075020 (antisense kT*kT*kA*dA*dT*dT*dA*dG*d[5mC]*dA*dT*dT*dA*kG*kA*kG) [compound 1075020] | 30
1075852 (kG*kA*kT*dA*dA*dG*d[5mC]*d[5mC]*dG*dA*dA*dT*dA*kT*kG*kG; antisense) [compound 1075852] | 58

Same assay, conditions: Table 27; Yap1 mRNA by 3-10-3 cEt gapmers targeting SEQ ID NO.: 1, and 2; percent of untreated control

Substance | YAP1 (% UTC)
1076109 (k[5mC]*kT*kT*dA*dA*dA*dT*dG*dA*d[5mC]*d[5mC]*dA*dA*kT*kT*k[5mC]; antisense) [compound 1076109] | 23

Same assay, conditions: Table 28; Yap1 mRNA as percent of untreated control; 3-10-3 cEt gapmers targeting SEQ ID NO.: 1, and 2

Substance | YAP1 (% UTC)
1076078 (k[5mC]*kT*kT*dT*dA*dG*d[5mC]*d[5mC]*dT*d[5mC]*dT*dA*dT*kA*k[5mC]*k[5mC]; antisense) [compound 1076078] | 23
1076014 (kA*kA*kT*d[5mC]*dA*dA*d[5mC]*d[5mC]*dT*dA*dT*dG*dA*kG*kG*kT; antisense) [compound 1076014] | 98
1075886 (antisense k[5mC]*kA*kT*dA*dA*d[5mC]*dA*d[5mC]*dT*dG*dA*dA*dG*kG*kT*kG) [compound 1075886] | 60
1074478 (k[5mC]*k[5mC]*kT*dA*dG*dG*dT*dT*d[5mC]*d[5mC]*dG*dA*d[5mC]*kA*kA*kA; antisense) [compound 1074478] | 69
1075982 (k[5mC]*kA*kT*dG*dA*dA*dA*dG*d[5mC]*dA*dA*dT*dA*kT*k[5mC]*k[5mC]; antisense) [compound 1075982] | 23

Same assay, conditions: Table 29; Yap1 mRNA as percent of untreated control; 3-10-3 cEt gapmers targeting SEQ ID NO.: 1, and 2

Substance | YAP1 (% UTC)
1075247 (k[5mC]*kT*kA*dA*dG*dA*dT*dA*dA*d[5mC]*dT*dA*dG*kT*kA*kA; antisense) [compound 1075247] | 101
1074863 (kA*kT*kA*dT*dG*dA*dG*d[5mC]*dA*dT*dG*d[5mC]*dT*k[5mC]*kT*kT; antisense) [compound 1074863] | 41

Same assay, conditions: Table 34; Yap1 mRNA as percent of untreated control; 3-10-3 cEt gapmers targeting SEQ ID NO: 1 and 2; single dose

Substance | YAP1 (% UTC)
1074292 (antisense k[5mC]*kT*kG*dT*dT*dT*d[5mC]*dA*d[5mC]*dT*dG*dG*dA*kG*k[5mC]*kA) [compound 1074292] | 10
1074900 (antisense kA*kT*kT*dA*dA*d[5mC]*dT*dT*dT*dT*dG*dG*dG*k[5mC]*kA*kA) [compound 1074900] | 40
1075892 (antisense k[5mC]*kA*k[5mC]*d[5mC]*dA*dA*dT*dA*d[5mC]*d[5mC]*dA*dA*dA*kG*kT*k[5mC]) [compound 1075892] | 54
1074932 (antisense kG*kG*kA*dG*dA*d[5mC]*dT*dA*dT*dA*d[5mC]*dA*dA*k[5mC]*kA*kG) [compound 1074932] | 88

Same assay, conditions: Table 35; Yap1 mRNA as percent of untreated control; 3-10-3 cEt gapmers targeting SEQ ID NO: 1 and 2; single dose

Substance | YAP1 (% UTC)
1075253 (kG*kT*kT*dA*dA*dT*dT*dA*d[5mC]*dG*dA*dT*dT*kA*kG*kA; antisense) [compound 1075253] | 20
1075861 (antisense kT*kA*kA*d[5mC]*dT*dA*dT*dA*dA*dG*d[5mC]*dT*dA*kT*kG*kT) [compound 1075861] | 78
1075989 (kG*k[5mC]*kT*dA*dA*dA*dA*dT*dT*dA*dA*dG*d[5mC]*kT*kT*k[5mC]; antisense) [compound 1075989] | 78
1075605 (antisense k[5mC]*kG*kT*dA*dA*dA*d[5mC]*dA*dT*dT*dT*dT*dG*k[5mC]*k[5mC]*kT) [compound 1075605] | 38
1076533 (kA*kT*kT*dT*dT*dT*dA*dG*dT*d[5mC]*d[5mC]*dA*dG*kT*kG*kG; antisense) [compound 1076533] | 9
1074325 (antisense k[5mC]*kG*k[5mC]*dA*dG*dG*dG*d[5mC]*dT*dA*dA*d[5mC]*dT*k[5mC]*k[5mC]*kT) [compound 1074325] | 42
1074261 (antisense k[5mC]*k[5mC]*kG*dA*dG*dT*dT*d[5mC]*dA*dT*d[5mC]*dA*dT*kA*kT*kT) [compound 1074261] | 19

Source: patent US11214803B2, “Modulators of YAP1 expression” (Ionis Pharmaceuticals, Inc., priority 2019, dated 2022)
